From PubChem BioAssay AID463203 (Broad Institute, 2010) come the findings set out here.

Calls of active or inactive are those of the source.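 How the source made its calls: active means more than half of replicate measurements showing over 20% loss of kinase signal relative to plate controls; inconclusive means some but at most half of replicates over 20% loss; inactive means no replicate over 20% signal loss.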

The target of this experiment is Glycogen synthase kinase-3 alpha (Homo sapiens) (UniProt P49840). The experiment can be described thus: concentration-response blocking of human GSK3A – biochemical, luminescence, cell-free homogeneous, retest, dose response (AID 463203). To be noted: GSK-3 alpha enzyme, ADP-Glo luminescence, 60 min.
Sequence of Glycogen synthase kinase-3 alpha (Homo sapiens) (P49840 whole entry, looked up): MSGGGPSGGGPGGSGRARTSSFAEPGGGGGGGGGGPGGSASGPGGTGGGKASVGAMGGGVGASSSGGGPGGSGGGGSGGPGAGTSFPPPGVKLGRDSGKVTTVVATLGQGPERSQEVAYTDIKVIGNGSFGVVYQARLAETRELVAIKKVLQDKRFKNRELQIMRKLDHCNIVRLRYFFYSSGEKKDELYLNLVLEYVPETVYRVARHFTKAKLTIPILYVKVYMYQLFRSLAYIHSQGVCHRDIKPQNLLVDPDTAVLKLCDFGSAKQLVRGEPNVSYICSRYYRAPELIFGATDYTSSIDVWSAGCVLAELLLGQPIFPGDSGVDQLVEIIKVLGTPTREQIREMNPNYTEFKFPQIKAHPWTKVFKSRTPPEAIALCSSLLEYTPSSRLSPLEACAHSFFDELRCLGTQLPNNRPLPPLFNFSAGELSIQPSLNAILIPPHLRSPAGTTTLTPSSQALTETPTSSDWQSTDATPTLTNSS
As usually defined, the AC50 is the concentration giving half of the maximal activity seen. On to `CCN1CCN(c2nc(Nc3ccccc3F)nc(N)c2[N+](=O)[O-])CC1`, for which the AC50 is > 30 µM (inactive).

`Cc1cccc(-c2c3c(=O)n(C)c(=O)n(C)c3c3cccnn23)c1`: the AC50 was > 30 µM (inactive).

For `CCOc1ccc(-c2c(C(=O)N/N=C(\C)c3ccncc3)nnn2-c2nonc2N)cc1`, the AC50 is 20.9 µM.

As for `CC(C)CCSc1cc(NCCO)c([N+](=O)[O-])c2nonc12`, the AC50 was > 30 µM (inactive).

On to `C#CCOCCOCCOCCNc1nc(N2CCN(C(=O)CCCCCCCCCCNC(=O)[C@H](CCCCN)n3cc(C)nn3)CC2)nc(N2CCN(C(=O)CCCCCCCCCCNC(=O)[C@H](CCCN=C(N)N)n3cc(C[C@@H](C)CC)nn3)CC2)n1`, for which the AC50 was > 30 µM (inactive).

For the molecule `CN(C)C(=O)c1ccc(NC(=O)c2cc(-n3cnnc3)ccc2Cl)cc1`, the AC50 is > 30 µM (inactive).

Consider `COc1ccc2[nH]c(C(=O)O)c(NS(=O)(=O)c3ccc(OC)c(OC)c3)c2c1`, for which the half-maximal activity concentration (AC50) was 6.63 µM.

`Nc1c(C(=O)Nc2ccc3c(c2)OCCO3)nnn1Cc1ccccc1Cl`: the AC50 was > 30 µM (inactive).

On to `Cc1nc2sc3c(c2c(=O)o1)CC(C)(C)OC3`, for which the AC50 was > 30 µM (inactive).

Turning to `COc1cc(-c2nnc(SCc3c(F)cccc3Cl)o2)cc(OC)c1OC`, the AC50 is > 30 µM (inactive).

For `CSc1nnc([C@@H](N)Cc2c[nH]c3ccccc23)o1`, the AC50 was > 30 µM (inactive).

Consider `CC1CCN(Cc2c(O)ccc3c2O/C(=C\c2ccco2)C3=O)CC1`, for which the half-maximal activity concentration (AC50) is 4.41 µM.

As for `Cc1ccc2oc(=O)c3cnn(CC(=O)N4CCCCC4C)c3c2c1` (centres undefined), the AC50 is > 30 µM (inactive).

As to `S=C(Nc1cccnc1)Nc1ccccn1`, the AC50 is > 30 µM (inactive).

As for `Cc1nc2ncnn2c(C)c1Cc1ccccc1Cl`, the AC50 is > 30 µM (inactive).

Regarding `Clc1ccc(N/N=C/c2ccncc2)cc1Cl`, the AC50 is > 30 µM (inactive).

In the case of `COc1ccc(NC(=O)CN(C)C2CCCCC2)c([N+](=O)[O-])c1`, the AC50 is > 30 µM (inactive).

With `c1cncc(-c2nc3ccccc3[nH]2)c1`, the AC50 is > 30 µM (inactive).

As for `COc1cc(C2c3sc(=O)[nH]c3SC3C4CCC(C4)C23)ccc1O` (centres undefined), the AC50 is 1.22 µM.

Regarding `O=C1NC(c2ccccc2)(C(F)(F)F)C(=O)N1Cc1cccnc1` (centres undefined), the AC50 was > 30 µM (inactive).

Regarding `Cn1c(=O)c2[nH]c(NCC3CCCO3)nc2n(-c2ccccc2)c1=O` (centres undefined), the half-maximal activity concentration (AC50) was 11 µM.

Regarding `COc1ccc(C(=O)c2cc(C(C)=O)c(Nc3ccccc3)s2)cc1`, the AC50 is > 30 µM (inactive).

Regarding `Cc1ccc2oc(=O)c3cnn(CC(=O)N4CCN(c5ccccc5)CC4)c3c2c1`, the AC50 is > 30 µM (inactive).

For `Cc1ccc(-c2nnc(N3CCN(C(=O)COc4ccccc4)CC3)c3ccccc23)cc1`, the AC50 is > 30 µM (inactive).

Turning to `COC(=O)c1nnn(-c2ccccc2)c1N`, the AC50 is > 30 µM (inactive).

Regarding `Cc1cccc(C)c1NC(=O)COC(=O)Cc1ccsc1`, the AC50 is > 30 µM (inactive).

Turning to `CC(=O)Nc1n[nH]c(-c2ccc(C)cc2)c1C`, the AC50 is > 30 µM (inactive).

With `O=C(NCCCn1ccnc1)C(Cl)(Cl)Cl`, the AC50 is > 30 µM (inactive).

With `CNc1ccc(/C=C/C(=O)c2ccc3c(c2)OCCO3)cc1[N+](=O)[O-]`, the AC50 is > 30 µM (inactive).

Regarding `Cc1nc(SCC(=O)Nc2nc3ccccc3s2)n[nH]1`, the AC50 is > 30 µM (inactive).

For `CCOC(=O)c1[nH]c2c(c1-c1ccccc1)C(=O)CC(c1ccc(OCC)cc1)C2` (centres undefined), the AC50 was > 30 µM (inactive).

Take `Fc1ccc(/C=N/Nc2nc3ccccc3[nH]2)cc1F`: the AC50 was > 30 µM (inactive).

Take `CC1(C)CC(=O)C2=C(C1)Nc1nc(SCCN3CCOCC3)[nH]c(=O)c1C2c1cccs1` (centres undefined): the AC50 was > 30 µM (inactive).

`O=C(c1coc2ccc(O)c(CN3CCOCC3)c12)C1CC1`: the AC50 is 22.8 µM.

Turning to `COc1ccc(OCc2nc(N)nc(Nc3ccc(C)cc3)n2)cc1`, the AC50 is > 30 µM (inactive).

In the case of `COc1ccc(OC)c(/C=C2\Oc3cc(OCC(=O)N4CC(O)C[C@H]4C(=O)O)ccc3C2=O)c1` (some centres undefined), the AC50 was > 30 µM (inactive).

For `CCCc1cc(NCc2ccccn2)n2c(nc3ccccc32)c1C#N`, the AC50 was > 30 µM (inactive).

For `Cc1cccc(N2CCN(C(=O)c3cc4c(=O)[nH]c5ccccc5c4n3C)CC2)c1C`, the AC50 was > 30 µM (inactive).

`O=C(Cc1c(F)cccc1Cl)Nc1ncc([N+](=O)[O-])s1`: the AC50 is 2.43 µM.

For `CCC(CC)c1nnc(NC(=O)Oc2ccccc2)s1`, the AC50 was > 30 µM (inactive).

Regarding `CCCn1c2ccccc2c2nc3ccccc3nc21`, the AC50 was > 30 µM (inactive).

Turning to `CCCOc1ccccc1NC(=O)Nc1ccccc1Cl`, the AC50 was > 30 µM (inactive).

`CN1/C(=C/C(=S)NC(=O)C2(C)CC2(Cl)Cl)C(C)(C)c2ccccc21` (centres undefined): the AC50 is > 30 µM (inactive).

As for `Cc1cccc(NC(=O)CSCc2nc3c(nnn3Cc3ccc(F)cc3)c(=O)[nH]2)c1C`, the AC50 is > 30 µM (inactive).

For `O=C(CSc1ncccc1-c1nc2ccccc2[nH]1)NCc1ccco1`, the AC50 was > 30 µM (inactive).

For the molecule `CC(=O)Oc1cc(O)c2c(=O)c(OC(C)=O)c(-c3ccc(OC(C)=O)c(OC(C)=O)c3)oc2c1`, the AC50 is 15.4 µM.

In the case of `CCOc1ccccc1NC(=O)Nc1ccc(Cl)cc1`, the AC50 is > 30 µM (inactive).

For `NC(=O)c1cc(Br)cc2c3c([nH]c12)CCCC3`, the AC50 was 9.98 µM.

In the case of `O=c1c(O)cccc2cc(O)c(O)c(O)c12`, the AC50 is 21.1 µM.

Turning to `NC(=O)c1ccc(NCCCN2CCOCC2)c([N+](=O)[O-])c1`, the AC50 is > 30 µM (inactive).

With `CCCC(=O)Nc1nn(CC)c2nc3ccc(C)cc3cc12`, the AC50 was > 30 µM (inactive).

With `Cc1ccc(O)c(C(=O)c2coc(=N)c(C(=O)NC(C)C)c2)c1`, the AC50 was 22.1 µM.

With `CCCCCCN=C(CC)c1c(O)n(CCCC)c(=O)[nH]c1=O`, the AC50 was > 30 µM (inactive).

With `CCOC(=O)N1CCC(N2CCN(S(=O)(=O)c3ccc(OC)cc3)CC2)CC1`, the AC50 is > 30 µM (inactive).

For the molecule `O=[N+]([O-])c1c(NCCCO)cc(Sc2nc3ccccc3s2)c2nonc12`, the AC50 is > 30 µM (inactive).

Consider `Fc1ccccc1-c1nnc2ccc3ccccc3n12`, for which the AC50 is > 30 µM (inactive).

For `O=C(CSc1ccc2nnc(-c3ccccn3)n2n1)N1CCN(c2ccccc2)CC1`, the AC50 is > 30 µM (inactive).

For `O=C(O)c1cc(NC(=O)c2ccccc2[N+](=O)[O-])ccc1O`, the AC50 was > 30 µM (inactive).

Consider `NC(=O)Cn1cc(/C=N\NS(=O)(=O)c2cccc([N+](=O)[O-])c2)c2ccccc21`, for which the AC50 was > 30 µM (inactive).

For the molecule `CCOC(=O)c1c2c(n(C)c1C)C(=O)C(=O)c1ccc(Br)cc1-2`, the AC50 was 15 µM.

For `Cn1cnnc1Sc1ccc(CN2CCN(C3CCCC3)C(CCO)C2)o1` (centres undefined), the AC50 was > 30 µM (inactive).

As to `CN1CCC(=NNC(=O)C(=O)NC2CCCC2)CC1`, the AC50 is > 30 µM (inactive).

With `Oc1ccc(/C=N/NP(=S)(c2ccccc2)c2ccccc2)cc1O`, the AC50 was > 30 µM (inactive).

Take `Cc1ccc(C2C3=C(CCCC3=O)Nc3c2c(C)nn3-c2ccccn2)o1` (centres undefined): the AC50 is > 30 µM (inactive).

For the molecule `Cc1cccc(C(=O)Nc2cccc(C(=O)N/N=C/c3ccccn3)c2)c1`, the AC50 was 23.3 µM.

For the molecule `C/C(CC(=O)Nc1ccc(Cl)cc1Cl)=N\NC(=O)C(=O)N1CCCC1`, the AC50 was > 30 µM (inactive).

Take `CC(C)c1ccc(/C=N/NC(=O)c2nnn(-c3nonc3N)c2CN(C)C2CCCCC2)cc1`: the AC50 was > 30 µM (inactive).

In the case of `COc1ccccc1-c1noc(CSc2nc(C)cc(=O)[nH]2)n1`, the AC50 is > 30 µM (inactive).

For the molecule `O=C1c2cnc3nc(SCc4cccc(Cl)c4)nn3c2CC2c3ccccc3CCN12` (centres undefined), the AC50 was > 30 µM (inactive).

Take `CCCCc1ccc(NC(=O)N[C@@H](CC(C)C)C(=O)O)cc1`: the AC50 is > 10 µM (inactive).

For the molecule `COc1ccc(-c2cc(C(F)(F)F)nc(SCC(=O)NCc3cccs3)n2)cc1`, the AC50 was > 30 µM (inactive).

Take `CCOCCOC(=O)c1[nH]c2c(c1C)C(=O)CC(c1cc(OC)c(OC)c(OC)c1)C2` (centres undefined): the AC50 was > 30 µM (inactive).

As to `COc1ccc(C2c3sc(=O)[nH]c3SC3C4CCC(C4)C23)cc1OC` (centres undefined), the AC50 was 1.92 µM.

Regarding `CN(Cc1c(C(=O)N/N=C/c2ccc(O)cc2)nnn1-c1nonc1N)c1ccccc1`, the AC50 is 0.243 µM.

For `O=C(Nc1ccccc1C(=O)NC1CCCCC1)c1ccccc1`, the AC50 was > 30 µM (inactive).

As to `Clc1cncc(Cl)c1N/N=C/c1ccncc1`, the AC50 was > 30 µM (inactive).

For the molecule `CC(C)(C)C(=O)c1cnc(Nc2ccccc2Cl)s1`, the AC50 was > 30 µM (inactive).

As to `CCc1ccc(C2CC(c3ccc(F)cc3)Nc3nc(N)nn32)cc1` (centres undefined), the AC50 is > 30 µM (inactive).

As to `CCN(C(=O)CN1CC=C(c2ccccc2)CC1)c1c(N)n(Cc2ccccc2)c(=O)[nH]c1=O`, the AC50 was > 30 µM (inactive).

Turning to `CCN1C(=O)/C(=C/c2cccs2)N(C)C1=S`, the AC50 is > 30 µM (inactive).

As to `Clc1ccc(-c2noc(COc3ccccc3)n2)cc1`, the AC50 was > 30 µM (inactive).

For the molecule `CC(=O)Nc1cccc(-c2csc(NCc3ccccc3)n2)c1`, the AC50 is > 30 µM (inactive).

For the molecule `NC1=NC(=O)/C(=C\c2ccc(-c3ccc(Cl)cc3)o2)S1`, the AC50 was 1.4 µM.

As to `CCOC(=O)c1cnc2c(C)c(Cl)ccc2c1N1CCN(CC)CC1`, the AC50 is > 30 µM (inactive).

Turning to `CC1=C(C(=O)OC2CCCCC2)C(c2cccs2)n2c(nc3ccccc32)N1` (centres undefined), the AC50 was > 30 µM (inactive).

`COC1(OC)N=C(N)C2(C#N)C(c3ccc(C)cc3)C12C#N` (centres undefined): the AC50 was > 30 µM (inactive).

Turning to `COC1(OC)N=C(N)C2(C#N)C(c3ccc4c(c3)OCO4)C12C#N` (centres undefined), the AC50 was 20.1 µM.

`NC(=O)c1nnn(-c2ccccc2)c1N`: the AC50 was > 30 µM (inactive).

Consider `O=C(COc1cccc2cccnc12)N/N=C/c1ccccc1O`, for which the AC50 was > 30 µM (inactive).
